From patent US7973063B2, “Methods for activating PPAR gamma-type receptors” (Galderma Research & Development, priority 2004, dated 2011)
Where two headings read alike, the source gives them in different places.

How the values were obtained:
PPARγ [1] = conditions: Table 1, PPARγ receptors; values described for the compounds of FR-2,812,876; read-out: KdApp in nM (PPARγ receptors), compounds according to Patent FR 2 812 876; cited from earlier work
PPARα = target: T1, PPARα (Homo sapiens, UniProt Q07869); test: Crossed-curve PPAR transactivation assay (PPARα); format: cell-based; conditions: HeLN cells stably transfected with Gal-hPPARα and luciferase reporter; crossed curves vs reference agonist, Schild regression; read-out: PPARα KdApp
T1 construct: Either is a handle for the test and no part of the key
T1 sequence (Q07869 200-468 limits assumed): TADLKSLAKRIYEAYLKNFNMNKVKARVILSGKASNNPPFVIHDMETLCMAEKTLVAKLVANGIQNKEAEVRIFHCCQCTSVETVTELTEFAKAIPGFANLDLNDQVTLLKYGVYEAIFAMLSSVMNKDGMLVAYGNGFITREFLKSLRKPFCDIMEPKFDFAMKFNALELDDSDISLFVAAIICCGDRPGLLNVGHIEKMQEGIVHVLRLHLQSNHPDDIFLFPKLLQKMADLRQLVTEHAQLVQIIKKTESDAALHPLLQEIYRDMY
Experimental: (§1) Activation of the PPAR receptors by an agonist (activator) in HeLN cells leads to the expression of a reporter gene, luciferase, which, in the presence of a substrate, generates light. The modulation of the PPAR receptors is measured by quantifying the luminescence produced after incubation of the cells in the presence of a reference agonist. The ligands will displace the agonist from its site. The measurement of the activity is performed by quantifying the light produced. This measurement makes it possible to determine the modulatory activity of the compounds according to the invention by the determination of the constant which is the affinity of the molecule for the PPAR receptor. Since this value can fluctuate depending on the basal activity and the expression of the receptor, it is referred to as apparent Kd (KdApp in nM).
(§2) To determine this constant, “crossed curves” for the test product, against a reference agonist, are prepared using a 96-well plate: 10 concentrations of the test product plus a concentration 0 are arranged in a line, and 7 concentrations of the agonist plus a concentration 0 are arranged in a column. This is 88 measurement points for 1 product and 1 receptor. The remaining 8 wells are used for repeatability controls.
(§3) Measurements are also taken for total agonist controls with the same products.
(§4) The HeLN cell lines used are stable transfectants containing the plasmids ERE-βGlob-Luc-SV-Neo (reporter gene) and PPAR (α, δ, γ) Gal-hPPAR. These cells are seeded in 96-well plates at the rate of 10 000 cells per well in 100 μl of DMEM medium without phenol red and supplemented with 10% of defatted calf serum. The plates are then incubated for 16 hours at 37° C. and 7% CO2.
(§5) The various dilutions of the test products and of the reference ligand are added at the rate of 5 μl per well. The plates are subsequently incubated for 18 hours at 37° C. and 7% CO2. The culture medium is removed by turning over and 100 μl of a 1:1 PBS/luciferin mixture are added to each well. After 5 minutes, the plates are read using the luminescence reader.

PPARδ = target: T2, PPARδ (Homo sapiens, UniProt Q03181); test: Crossed-curve PPAR transactivation assay (PPARδ); format: cell-based; conditions: HeLN cells stably transfected with Gal-hPPARδ and luciferase reporter; crossed curves vs reference agonist, Schild regression; read-out: PPARδ KdApp
T2 construct: Either is a handle for the test and no part of the key
T2 sequence (Q03181 171-441 limits assumed): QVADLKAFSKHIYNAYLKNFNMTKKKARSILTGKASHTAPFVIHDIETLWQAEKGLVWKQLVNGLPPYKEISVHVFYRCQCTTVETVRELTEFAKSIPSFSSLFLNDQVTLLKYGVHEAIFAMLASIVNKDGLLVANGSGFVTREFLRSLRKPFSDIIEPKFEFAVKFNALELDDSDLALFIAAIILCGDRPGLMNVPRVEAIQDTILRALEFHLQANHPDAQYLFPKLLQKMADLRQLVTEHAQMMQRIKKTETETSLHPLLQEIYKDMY
Experimental: as §1, §2, §3, §4, §5

PPARγ [2] = target: T3, PPARγ (Homo sapiens, UniProt P37231); test: Crossed-curve PPAR transactivation assay (PPARγ); format: cell-based
T3 construct: PPARγ KdApp; other: HeLN cells stably transfected with Gal-hPPARγ and luciferase reporter; KdApp in nM (PPARγ receptors), compounds according to the present invention; Either is a handle for the test and no part of the key
T3 sequence (P37231 238-505 limits assumed): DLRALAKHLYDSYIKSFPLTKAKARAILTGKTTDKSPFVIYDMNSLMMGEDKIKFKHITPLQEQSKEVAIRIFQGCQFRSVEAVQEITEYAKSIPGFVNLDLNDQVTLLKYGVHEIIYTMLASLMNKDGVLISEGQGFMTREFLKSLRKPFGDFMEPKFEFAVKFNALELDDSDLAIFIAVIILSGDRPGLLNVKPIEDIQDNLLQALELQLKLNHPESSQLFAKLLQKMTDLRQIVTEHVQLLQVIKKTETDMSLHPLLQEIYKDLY
Experimental: as §1, §2, §3, §4, §5

[3] = HeLN cells stably transfected with Gal-hPPARγ and luciferase reporter, crossed curves vs reference agonist, Schild regression, read-out: PPARγ KdApp

Row | Compound | Kd (PPARγ [1]) [nM] | Kd (PPARα) [nM] | Kd (PPARδ) [nM] | Kd (PPARγ [2]; [3]) [nM] | Kd (PPARγ [2]; Table 1, PPARγ receptors, read-out: KdApp in nM (PPARγ receptors), compounds according to the present invention) [nM]
1 | CN(Cc1cccc(-c2ccc(CC3SC(=O)NC3=O)cc2)c1)C(=O)C(C)(C)C (centres unmarked) [Example 22, N-[4′-(2,4-Dioxothiazolidin-5-ylmethyl)biphenyl-3-ylmethyl]-2,2,N-trimethylpropionamide] | 250 |  |  |  | 
2 | CCCCCCCCNC(=O)c1cccc(-c2ccc(CC3SC(=O)NC3=O)cc2)c1 (centres unmarked) [Example 23, N-Octyl-4′-(2,4-dioxothiazolidin-5-ylmethyl)biphenyl-3-carboxamide] | 2000 |  |  |  | 
3 | CCO[C@@H](Cc1ccc(-c2cccc(CN(C)C(=O)c3ccccc3)c2)cc1)C(=O)O [Example 13, (S)-2-Ethoxy-3-(3′-{[methyl(1-phenylmethanoyl)amino]methyl}biphenyl-4-yl)propionic acid] | 500 |  |  |  | 
4 | CCCCCCCNC(=O)N(C)c1cccc(-c2ccc(C[C@H](OCCC)C(=O)O)cc2)c1 [Example 4, 2-(S)-Propyloxy-3-[3′-(3-heptyl-1-methylureido)biphenyl-4-yl]propanoic acid] |  | 30 | 500 | 0.025 | 
5 | CCCCCCCCCC(=O)N(C)Cc1cccc(-c2ccc(CC3SC(=O)NC3=O)cc2)c1 (centres unmarked) [Example 32, N-[4′-(2,4-Dioxothiazolidin-5-ylmethyl)biphenyl-3-ylmethyl]-N-methyldecanamide] | 250 |  |  |  | 
6 | CCCCCCCNC(=O)N(C)c1cccc(-c2ccc(C[C@H](OCc3ccccc3)C(=O)O)cc2)c1 [Example 5, 2(S)-Benzyloxy-3-[3′-(3-heptyl-1-methylureido)biphenyl-4-yl]propanoic acid] |  | 250 |  | 0.03 | 
7 | CCCCCCCNC(=O)N(C)c1cccc(-c2ccc(C[C@H](OCC)C(=O)O)cc2)c1 [Example 1, 2(S)-Ethoxy-3-[3′-(3-heptyl-1-methylureido)biphenyl-4-yl]propanoic acid] |  | 30 | 250 | < 1 | < 1
8 | CCCCCNC(=O)N(C)c1cccc(-c2ccc(C[C@H](OCC)C(=O)O)cc2)c1 [Example 2, 2(S)-Ethoxy-3-[3′-(1-methyl-3-pentylureido)biphenyl-4-yl]propanoic acid] |  | 250 | 2000 | 0.03 | 
9 | C=CCO[C@@H](Cc1ccc(-c2cccc(N(C)C(=O)NCCCCCCC)c2)cc1)C(=O)O [Example 6, 2(S)-Allyloxy-3-[3′-(3-heptyl-1-methylureido)biphenyl-4-yl]propanoic acid] |  | 2 | 50 | 0.003 | 
10 | CCCCCCC(=O)N(C)Cc1cccc(-c2ccc(CC3SC(=O)NC3=O)cc2)c1 (centres unmarked) [Example 35, N-[4′-(2,4-Dioxothiazolidin-5-ylmethyl)biphenyl-3-ylmethyl]-N-methylheptanamide] | 1000 |  |  |  | 
